# In patent publication US12240920B2, “Cyclic peptidomimetic for the treatment of neurological disorders” (Brown University, priority 2019, dated 2025):
# Key:
# [1] = in vivo; conditions: plasma
# [2] = test system: repeated corticosterone-injected rats; conditions: CORT administration model; cited from earlier work
Compound,half-life [1],depressive-like behavior [2]
"CC(C)[C@H](NC(=O)[C@@H]1CCC(=O)NCCC(=O)NCCCC[C@H](NC(=O)[C@H](CCCCN)NC(=O)[C@H](Cc2ccc(O)cc2)NC(=O)[C@H](CC(N)=O)NC(=O)[C@H](CCCCN)NC(=O)[C@@H](N)CSSC[C@@H](N)C(=O)N[C@@H](CCCNC(=N)N)C(=O)N[C@@H](CCCNC(=N)N)C(=O)N[C@@H](CCCNC(=N)N)C(=O)N[C@@H](CCCNC(=N)N)C(=O)N[C@@H](CCCNC(=N)N)C(=O)N[C@@H](CCCNC(=N)N)C(=O)N[C@@H](CCCNC(=N)N)C(N)=O)C(=O)N[C@@H]([C@@H](C)O)C(=O)N1)C(=O)O [CN2097, R7Cs-sCYK[KTE(β-Ala)]V]",~1 h,
CNC1(c2ccccc2Cl)CCCCC1=O (centres unmarked) [ketamine],,significantly reduced depressive-like behavior
